Values quoted from earlier work in patent publication US12357667B2, “Nutraceutical formulations to prevent, treat, and inhibit excess cytokines, SARS-CoV-2 spike proteins, and mRNA vaccine spike proteins” (priority 2021, dated 2025).

Tests used:
[1] = tested on: SARS-CoV-2 alpha variant B.1.1.7 and the beta variant B.1.351; settings: alpha variant B.1.1.7 and beta variant B.1.351
[2] = tested on: variant spikes from the SARS-CoV-2 alpha and delta strains

Structure (SMILES)	effectiveness against variants [1]	activity of variant spikes [2]
CCCCCc1cc(O)c(C/C=C(\C)CCC=C(C)C)c(O)c1C(=O)O [cannabigerolic acid]	equally effective	
C=C(C)[C@@H]1CCC(C)=C[C@H]1c1c(O)cc(CCCCC)c(C(=O)O)c1O [cannabidiolic acid]	equally effective	
N[C@@H](CCC(=O)N[C@@H](CS)C(=O)NCC(=O)O)C(=O)O [glutathione, γ-glutamyl cysteinyl glycine]		suppressed
CC(=O)N[C@@H](CS)C(=O)O [N-acetylcysteine, reference compound]		suppressed
